# Test results from patent US9586975B2, “Macrocyclic salt-inducible kinase inhibitors” (ONCODESIGN S.A., priority 2013, dated 2017).
# Where a name gives a salt, the structure may show the parent alone.
# What was measured:
# [1] = molecular target: T1, SIK2 recombinant protein (Homo sapiens, UniProt Q9H0K1); assay: Radiometric protein kinase assay (33PanQinase Activity Assay) for inhibition of SIK2 kinase; type: biochemical; details: for remaining activity at 0.1 µM / remaining activity at 1 µM: 1 h; for remaining activity at 0.1 µM: compound at 0.1 μM; for remaining activity at 1 µM: compound at 1 μM; for IC50: ATP 1.0 μM, SIK2 0.3 nM, substrate RBER-Chktide
# T1 construct: purchased Invitrogen Corporation
# Procedure: The inhibition of SIK2 kinase was assessed using SIK2 recombinant protein in an in vitro peptide-based kinase assay.
# A radiometric protein kinase assay (^33PanQinase® Activity Assay) is used for measuring the kinase activity. All assays are performed in 96-well FlashPlates™ from Perkin Elmer in a 50 μl reaction volume. The reaction cocktail is […] in 4 steps in the following order: • 10 μl of non-radioactive ATP solution (in H2O) • 25 μl of assay buffer/[γ-^33P]-ATP mixture • 5 μl of test sample in 10% DMSO • 10 μl of enzyme/substrate mixture
# The assay for SIK2 contains 70 mM HEPES-NaOH pH 7.5, 3 mM MgCl2, 3 mM MnCl2, 3 μM Na-orthovanadate, 1.2 mM DTT, 50 μg/ml PEG20000, ATP (1.0 μM), [γ-^33P]-ATP (approx. 5×10^05 cpm per well), protein kinase SIK2 (0.3 nM) and substrate (RBER-Chktide), 2.0 μg/50 μl).
# The kinase is obtained from Invitrogen Corporation.
# The reaction cocktails were incubated at 30° C. for 60 minutes. The reaction was stopped with 50 μl of 2% (v/v) H3PO4, plates were aspirated and washed two times with 200 μl 0.9% (w/v) NaCl. Incorporation of ^33Pi (counting of “cpm”) was determined with a microplate scintillation counter.
# The compounds are dissolved to 10 mM in DMSO. Where needed, solutions are sonicated in a bath sonicator.
# Table 4 provides the pIC50 values and % Remaining activity values at two concentrations (1 μM and 0.1 μM) of the compounds according to the invention, obtained using the above mentioned kinase assay.
# T1 sequence (Q9H0K1 whole entry): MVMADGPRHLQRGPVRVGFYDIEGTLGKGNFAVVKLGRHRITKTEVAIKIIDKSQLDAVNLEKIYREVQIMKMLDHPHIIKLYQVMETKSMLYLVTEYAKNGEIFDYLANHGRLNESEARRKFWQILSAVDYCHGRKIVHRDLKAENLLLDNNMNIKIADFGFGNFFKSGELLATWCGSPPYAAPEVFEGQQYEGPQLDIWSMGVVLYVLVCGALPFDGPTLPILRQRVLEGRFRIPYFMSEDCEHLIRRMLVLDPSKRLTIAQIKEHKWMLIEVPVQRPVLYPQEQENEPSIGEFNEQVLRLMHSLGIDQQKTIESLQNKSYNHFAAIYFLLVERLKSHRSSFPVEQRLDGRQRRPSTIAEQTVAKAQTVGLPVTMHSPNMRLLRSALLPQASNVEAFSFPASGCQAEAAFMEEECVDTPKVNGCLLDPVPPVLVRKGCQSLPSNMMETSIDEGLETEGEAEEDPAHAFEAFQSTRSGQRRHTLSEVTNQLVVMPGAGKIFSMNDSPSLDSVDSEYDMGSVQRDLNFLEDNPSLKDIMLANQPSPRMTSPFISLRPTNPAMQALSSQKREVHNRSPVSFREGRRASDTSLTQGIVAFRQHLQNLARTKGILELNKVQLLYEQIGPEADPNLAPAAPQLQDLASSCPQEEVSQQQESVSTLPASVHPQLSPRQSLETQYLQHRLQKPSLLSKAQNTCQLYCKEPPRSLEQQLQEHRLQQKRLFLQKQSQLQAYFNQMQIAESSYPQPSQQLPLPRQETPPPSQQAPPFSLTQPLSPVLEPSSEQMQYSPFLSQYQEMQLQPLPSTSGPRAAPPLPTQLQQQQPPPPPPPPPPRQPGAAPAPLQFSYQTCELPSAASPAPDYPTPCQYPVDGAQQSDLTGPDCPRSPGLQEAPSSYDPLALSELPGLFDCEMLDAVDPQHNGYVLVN
SMILES,melting point [°C],remaining activity at 0.1 µM [1] [%],remaining activity at 1 µM [1] [%],IC50 [1] [nM]
CNCCN1CCOc2cccc(c2)-c2cnn3ccc(nc23)OCC1 (as salt: HCl) [Compound H86],247,–,–,–
c1cc2cc(c1)-c1cnn3ccc(nc13)OCCCNCCCN2 (as salt: HCl) [Compound H89],273.3,–,–,–
CN(C)CCNC(=O)N1CCNCCOc2cccc(c2)-c2cnn3ccc1nc23 [Compound A11],> 300,< 50,< 50,< 100
O=C(C1CC1)N1CCNc2ccn3ncc(c3n2)-c2cc(CO)cc(c2)OCC1 [Compound B75],–,< 50,< 50,–
COCc1cc2cc(c1)-c1cnn3ccc(nc13)NCCNCCO2 [Compound H78],–,< 50,< 50,< 100
COCc1cc2cc(c1)-c1cnn3ccc(nc13)NCCN(C(=O)C1CC1)CCO2 [Compound H79],> 300,–,–,< 100
OCc1cc2cc(c1)-c1cnn3ccc(nc13)NCCNCCO2 [Compound H80],–,–,–,< 100
OCc1cc2cc(c1)-c1cnn3ccc(nc13)NCCN(CC1CC1)CCO2 [Compound H81],179.1,< 50,< 50,< 100
Cc1ccc2cc1OCCNCCNc1ccn3ncc-2c3n1 [Compound H82],> 300,< 50,< 50,< 100
Fc1cc2cc(c1)-c1cnn3ccc(nc13)NCCN(C1CCNCC1)CCO2 [Compound H83],246.2,< 50,< 50,< 100
NCCN1CCNc2ccn3ncc(c3n2)-c2cccc(c2)OCC1 [Compound H84],> 300,< 50,< 50,< 100
c1cc2cc(c1)-c1cnc3ccc(nn13)SCCNCCCN2 [Compound H85],173.1,< 50,< 50,< 100
CNCCN1CCOc2cccc(c2)-c2cnn3ccc(nc23)OCC1 [Compound H86],–,< 50,< 50,< 100
c1cc2cc(c1)-c1cnn3ccc(nc13)OCCCNCCO2 [Compound H87],–,> 50,< 50,< 100
c1cc2cc(c1)-c1cnn3ccc(nc13)NCCCNCCCO2 [Compound H88],–,< 50,< 50,< 100
c1cc2cc(c1)-c1cnn3ccc(nc13)OCCCNCCCN2 [Compound H89],–,> 50,< 50,< 100
FC(F)(F)c1cc2cc(c1)-c1cnn3ccc(nc13)NCCCNCCO2 [Compound H90],> 300,< 50,< 50,< 100
CN1CCCNc2ccn3ncc(c3n2)-c2cc(cc(C(F)(F)F)c2)OCC1 [Compound H91],–,< 50,< 50,< 100
Cc1cc2cc(c1)-c1cnn3ccc(nc13)NCCCNCCO2 [Compound H92],> 300,< 50,< 50,< 100
Cc1cc2cc(c1)-c1cnn3ccc(nc13)NCCCN(C)CCO2 [Compound H93],–,< 50,< 50,< 100
CN1CCCOc2cccc(c2)-c2cnn3ccc(nc23)NCC1 [Compound H94],288,–,–,< 100
CCN1CCCNc2ccn3ncc(c3n2)-c2cc(C)cc(c2)OCC1 [Compound H95],–,< 50,< 50,< 100
OCc1cc2cc(c1)-c1cnn3ccc(nc13)NCCCNCCO2 [Compound H96],–,< 50,< 50,< 100
OCCN1CCNc2ccn3ncc(c3n2)-c2cc(Cl)cc(c2)OCC1 [Compound H97],285.2,< 50,< 50,< 100
c1cc2cc(c1)-c1cnn3ccc(nc13)SCCNCCCO2 [Compound H98],178.1,< 50,< 50,100 to 1000
c1cc2cc(c1)-c1cnc3ccc(nn13)SCCNCCCO2 [Compound H99],125.6,–,–,100 to 1000
OCc1cc2cc(c1)-c1cnn3ccc(nc13)NCCCNCCN2 [Compound H100],–,< 50,< 50,< 100
